# Source: ChEMBL document CHEMBL1132907, “The design and synthesis of the high efficacy, non-peptide CCK1 receptor agonist PD170292” (Bioorg Med Chem Lett, 2000)
# How the values were obtained:
# [1] = target: T1, Gastrin/cholecystokinin type B receptor (Mus musculus, UniProt P56481); assay: Binding affinity towards Cholecystokinin type B receptor in mouse cortex membrane; format: cell membranes
# T1 sequence (P56481 whole entry): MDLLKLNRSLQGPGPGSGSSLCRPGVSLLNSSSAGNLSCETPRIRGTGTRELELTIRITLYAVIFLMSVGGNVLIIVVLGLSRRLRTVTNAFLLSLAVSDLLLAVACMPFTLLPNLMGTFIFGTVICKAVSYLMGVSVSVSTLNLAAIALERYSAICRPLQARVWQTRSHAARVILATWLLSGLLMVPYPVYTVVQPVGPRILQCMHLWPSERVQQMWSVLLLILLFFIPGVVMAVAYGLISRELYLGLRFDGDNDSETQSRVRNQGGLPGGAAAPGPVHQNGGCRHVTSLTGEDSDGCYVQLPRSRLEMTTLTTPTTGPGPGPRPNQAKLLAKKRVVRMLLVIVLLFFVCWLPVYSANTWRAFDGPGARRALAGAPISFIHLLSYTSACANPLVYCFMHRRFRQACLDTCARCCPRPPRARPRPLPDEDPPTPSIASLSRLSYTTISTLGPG
# [2] = target: T2, Cholecystokinin receptor type A (Rattus norvegicus, UniProt P30551); assay: Compound was evaluated for the binding affinity towards rat pancreatic Cholecystokinin type A receptor
# T2 sequence (P30551 whole entry): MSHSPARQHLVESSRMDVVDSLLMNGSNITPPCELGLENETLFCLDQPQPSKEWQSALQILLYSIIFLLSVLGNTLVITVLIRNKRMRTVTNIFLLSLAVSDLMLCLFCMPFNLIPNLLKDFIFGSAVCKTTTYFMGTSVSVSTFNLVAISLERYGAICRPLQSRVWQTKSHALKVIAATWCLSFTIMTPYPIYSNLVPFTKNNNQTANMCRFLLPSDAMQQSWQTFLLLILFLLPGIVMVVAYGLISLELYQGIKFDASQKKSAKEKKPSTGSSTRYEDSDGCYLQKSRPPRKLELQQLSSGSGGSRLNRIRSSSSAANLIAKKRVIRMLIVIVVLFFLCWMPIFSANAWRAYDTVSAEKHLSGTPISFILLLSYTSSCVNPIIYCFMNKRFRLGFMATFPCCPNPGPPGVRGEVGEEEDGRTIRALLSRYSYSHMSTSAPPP
# [3] = system: Jurkat; assay: Compound was evaluated for calcium mobilization in Jurkat cells; format: functional, cell-based; conditions: Homo sapiens
# [4] = system: Jurkat; assay: Compound was tested for [Ca2+] mobilization in Jurkat cells at 1 uM; Inactive; format: functional, cell-based, Homo sapiens
# [5] = species: Rattus norvegicus; assay: Compound was evaluated for the stimulation of amylase secretion in isolated rat pancreatic acini
SMILES,IC50 [1] [nM],IC50 [2] [nM],IC50 [3] [nM],EC50 [4],EC50 [5] [nM],EC50 [3] [nM]
"CC(Cc1c[nH]c2ccccc12)(NC(=O)OC1C2CC3CC(C2)CC1C3)C(=O)N[C@H](CC(=O)O)Cc1ccc(F)cc1 (single isomer, unassigned)",0.083,75,–,–,–,–
Cc1ccccc1NC(=O)NCCCC[C@@H](CC(=O)O)NC(=O)[C@@](C)(Cc1c[nH]c2ccccc12)NC(=O)OC1C2CC3CC(C2)CC1C3 (some centres not stated) [PD-170292],6.7,1.2,40,Not Active,5,–
O=C(CC(Cc1c[nH]c2ccccc12)(NC(=O)OC1C2CC3CC(C2)CC1C3)C(=O)NCCc1ccccc1)NCCCCNC(=O)Nc1ccccc1Cl (configuration not stated),3600,150,–,–,480,–
CSCC[C@H](NC(=O)[C@H](Cc1ccc(OS(=O)(=O)O)cc1)NC(=O)[C@@H](N)CC(=O)O)C(=O)NCC(=O)N[C@@H](Cc1c[nH]c2ccccc12)C(=O)N[C@@H](CCSC)C(=O)N[C@@H](CC(=O)O)C(=O)N[C@@H](Cc1ccccc1)C(N)=O [SINCALIDE],–,–,–,–,0.02,2
